Experimental data reported in article PMC7857480 (The Journal of Biological Chemistry, 2020).

Target: FigA (Francisella tularensis, UniProt Q15EH0)
Settings: FigA alone; citrate, 2.25 mM ATP, 15 mM MgCl2, 50 mM HEPES pH 7.4, RT 2 h

Chain of FigA (Q15EH0 1-639): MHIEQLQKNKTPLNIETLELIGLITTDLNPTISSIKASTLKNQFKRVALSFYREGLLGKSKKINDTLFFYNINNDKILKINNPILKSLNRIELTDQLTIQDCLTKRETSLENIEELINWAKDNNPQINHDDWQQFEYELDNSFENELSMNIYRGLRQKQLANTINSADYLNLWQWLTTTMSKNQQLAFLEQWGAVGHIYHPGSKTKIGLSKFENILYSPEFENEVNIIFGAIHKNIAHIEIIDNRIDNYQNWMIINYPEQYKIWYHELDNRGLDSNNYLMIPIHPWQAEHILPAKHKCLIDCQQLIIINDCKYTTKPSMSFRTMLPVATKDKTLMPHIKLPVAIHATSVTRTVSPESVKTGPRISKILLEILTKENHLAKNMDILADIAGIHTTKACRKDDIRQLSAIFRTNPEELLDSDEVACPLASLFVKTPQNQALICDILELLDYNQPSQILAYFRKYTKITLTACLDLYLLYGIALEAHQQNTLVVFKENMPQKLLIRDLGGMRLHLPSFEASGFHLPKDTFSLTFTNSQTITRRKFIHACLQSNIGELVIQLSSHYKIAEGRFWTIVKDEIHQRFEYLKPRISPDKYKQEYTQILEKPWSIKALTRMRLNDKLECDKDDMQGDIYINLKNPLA

## NCCC[C@H](N)C(=O)O [L-ornithine]
  in vitro assay, LC-MS of N-citrylornithine (m/z 307.1): FigA alone assayed with citrate and L-ornithine assay were analyzed by LC-MS
